Starred links: 1 amine or outer side, 2 acyl side, 3 side chain; linkers in the order of their positions; H or OH if unused. Non-standard residues stand in square brackets, D forms with d. Residues, ends and D or L forms follow the SMILES beside them. *: point of attachment. Pipz(1-CH2CO,4-CH2CH2NH) = O=C(CN1CCN(CCN[*:1])CC1)[*:2]; γGlu = O=C(O)[C@H](CCC(=O)[*:2])N[*:1]; Stearoyl = CCCCCCCCCCCCCCCCCC(=O)*; X1 = CN(CC(=O)C(=O)[*:2])[*:1]; NMeL = CN[C@@H](CC(C)C)C(=O)O; Nle = CCCC[C@H](N)C(=O)O; Orn = NCCC[C@H](N)C(=O)O; Sar = CNCC(=O)O
Assays:
in vivo = experiment: in vivo; set-up: species or system NMRI mice; details: male, NMRI, mouse, iv
Method: Example 5: Pharmacokinetics Intravenous (iv) PK in Mouse Pharmacokinetic parameters of the test compounds were determined after intravenous administration to Naval Medical Research Institute (NMRI) mice. Male NMRI mice were obtained either from Charles River (Germany) or from Janvier (France) weighing approximately 30 g to 40 g. Mice were housed in standard cages with light cycle of 12-hour dark and 12-hour light. Standardized food and water were offered ad libitum to the animals during the whole experimental period. The respective peptide was dissolved in 50 mM phosphate buffer (pH 7.4) containing 3.5% mannitol. Intravenous doses of 30 nmol/kg were given via a tail vein. Serial blood samples were collected from the vena saphena into tubes containing EDTA as anticoagulant at different time points up to 48 hours post dosing. After centrifugation for approximately 5 minutes, plasma samples were transferred to 96-well Polymerase Chain Reaction (PCR) plates, immediately frozen and kept at approximately −20° C. until analyzed for plasma concentration by liquid chromatography mass spectrometry (LC-MS/MS). Individual plasma concentration-time profiles were analyzed by a non-compartmental approach, and the resulting pharmacokinetic parameters were determined.

human NMUR2 receptor = human NMUR2 receptor (Homo sapiens, UniProt Q9GZQ4); experiment: IP1 Gq HTRF assay, activation of human NMUR2 in buffer; type: cell-based; set-up: expressed in transfected cells; host or cells: CHO-K1; details: selectivity for NMUR2 over NMUR1 from IP1 assay in buffer (Example 3)
human NMUR2 receptor, sequence (Q9GZQ4 whole entry): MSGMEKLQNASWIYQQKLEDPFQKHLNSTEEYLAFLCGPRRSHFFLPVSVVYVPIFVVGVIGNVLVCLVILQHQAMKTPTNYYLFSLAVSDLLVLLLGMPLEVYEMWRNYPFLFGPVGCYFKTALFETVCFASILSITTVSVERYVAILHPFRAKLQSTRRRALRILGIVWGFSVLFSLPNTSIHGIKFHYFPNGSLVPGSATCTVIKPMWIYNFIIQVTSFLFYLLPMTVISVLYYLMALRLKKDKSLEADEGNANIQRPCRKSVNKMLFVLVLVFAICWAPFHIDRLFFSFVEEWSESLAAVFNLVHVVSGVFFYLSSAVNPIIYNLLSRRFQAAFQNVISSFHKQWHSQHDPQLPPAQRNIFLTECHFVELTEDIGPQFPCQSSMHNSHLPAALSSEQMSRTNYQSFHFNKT
In short: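 IP-One HTRF competition (665/620 nm ratio) read after 1 h agonist exposure at 37 °C in pH 7.4 HEPES/HBSS stimulation buffer containing 50 mM LiCl, 0.1% BSA, 1% DMSO. Cells: CHO-K1 stably expressing human NMUR2 or NMUR1. EC50 by 4-parameter nonlinear regression of 8-point curves.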

Row | MRT (in vivo) | EC50 (hNMUR1)/EC50 (hNMUR2) (human NMUR2 receptor) | Structure (SMILES)
1 | 2.2 h | 7.9 | CCCCCCCCCCCCCCCCCC(=O)N[C@@H](CCC(=O)N[C@@H](CCC(=O)N[C@@H](CCC(=O)N(C)CC(=O)C(=O)N[C@@H](CCC(=O)N(C)CC(=O)N(C)CC(=O)N(C)CC(=O)N(C)CC(=O)N(C)CC(=O)N(C)CC(=O)N(C)CC(=O)N(C)CC(=O)N(C)CC(=O)NCCN1CCN(CC(=O)N[C@@H](Cc2ccc(O)cc2)C(=O)N[C@@H](Cc2ccccc2)C(=O)N(C)[C@@H](CC(C)C)C(=O)N[C@@H](CCCC)C(=O)N[C@@H](CCCN)C(=O)N2CCC[C@H]2C(=O)N[C@@H](CCCNC(=N)N)C(=O)NCC(N)=O)CC1)C(=O)O)C(=O)O)C(=O)O)C(=O)O [Ref. 5, C18A-gGlu3-Sar12-AEPipAc-Tyr-Phe-NMeLeu-Nle-Orn-Pro-Arg-Gly-NH2, reference compound] ({Stearoyl-γGlu-γGlu-γGlu}-[X1][γGlu][Sar][Sar][Sar][Sar][Sar][Sar][Sar][Sar][Sar][Pipz(1-CH2CO,4-CH2CH2NH)]YF[NMeL][Nle][Orn]PRG-NH2)
2 | 4.2 h | 32.4 | CCCC[C@H](NC(=O)[C@H](CC(C)C)NC(=O)[C@H](Cc1ccccc1)NC(=O)[C@H](Cc1ccc(O)cc1)NC(=O)CN1CCN(CCNC(=O)CN(C)C(=O)CN(C)C(=O)CN(C)C(=O)CN(C)C(=O)CN(C)C(=O)CN(C)C(=O)CN(C)C(=O)CN(C)C(=O)CN(C)C(=O)CC[C@H](NC(=O)C(=O)CN(C)C(=O)CC[C@H](NC(=O)CC[C@H](NC(=O)CC[C@H](NC(=O)CCCCCCCCCCCCCCCCC(=O)O)C(=O)O)C(=O)O)C(=O)O)C(=O)O)CC1)C(=O)N[C@@H](CCCN)C(=O)N1CCC[C@H]1C(=O)N[C@@H](CCCNC(=N)N)C(=O)NCC(N)=O [Ref. 6, C18DA-gGlu3-Sar12-AEPipAc-Tyr-Phe-Leu-Nle-Orn-Pro-Arg-Gly-NH2, reference compound]

Row | Structure (SMILES) | MRT (in vivo) | EC50 (hNMUR1)/EC50 (hNMUR2) (human NMUR2 receptor)
3 | CCCC[C@H](NC(=O)[C@H](CC(C)C)N(C)C(=O)[C@H](Cc1ccccc1)NC(=O)[C@H](Cc1ccc(O)cc1)NC(=O)CN1CCN(CCNC(=O)CN(C)C(=O)CN(C)C(=O)CN(C)C(=O)CN(C)C(=O)CN(C)C(=O)CN(C)C(=O)CN(C)C(=O)CN(C)C(=O)CN(C)C(=O)CN(C)C(=O)CN(C)C(=O)CN(C)C(=O)CN(C)C(=O)CN(C)C(=O)CN(C)C(=O)CC[C@H](NC(=O)CC[C@H](NC(=O)CC[C@H](NC(=O)CCCCCCCCCCCCCCCCCCC(=O)O)C(=O)O)C(=O)O)C(=O)O)CC1)C(=O)N[C@@H](CCCNC(=N)N)C(=O)N1CCC[C@H]1C(=O)N[C@@H](CCCNC(=N)N)C(=O)NCC(N)=O [Ref. 4, C20DA-gGlu3-Sar15-AEPipAc-Tyr-Phe-Leu-Nle-Orn-Pro-Arg-Gly-NH2, reference compound] (HELM PEPTIDE1{[O=C(O)CCCCCCCCCCCCCCCCCCC(=O)[*:2]].[gGlu].[gGlu].[gGlu].[Sar].[Sar].[Sar].[Sar].[Sar].[Sar].[Sar].[Sar].[Sar].[Sar].[Sar].[Sar].[Sar].[Sar].[Sar].[O=C(CN1CCN(CCN[*:1])CC1)[*:2]].Y.F.[meL].[Nle].R.P.R.G.[am]}$$$$V2.0) | 22.5 h | 25.0

— patent US20240279278A1, “NMU RECEPTOR 2 AGONISTS” (Boehringer Ingelheim International GmbH, priority 2023, published 2024)
